The structures appear in SMILES notation. Where two headings read alike, the source gives them in different places.

Series [1] can be described thus: Canine pharmacokinetic (PK) study, single IV or oral dose. The conditions noted are these: dog; for Vd / clearance / half-life / Cmax: in vivo; for Vd / clearance / half-life: iv, 0.2 mg/kg; for Cmax: po, 1 mg/kg; for F: oral 1 mg/kg.
The subject of series [2] is circulating microfilariae (Dirofilaria immitis). The series is described as follows: Heartworm Positive Dog Studies (effects on circulating microfilariae, clinical observations). To be noted: for Mean MF/mL, Day 0 Pre-dose / Mean MF/mL, Day 0 Post-dose, 2 hours / Mean MF/mL, Day 1 / Mean MF/mL, Day 7 / Mean MF/mL, Day 14 / Mean MF/mL, Day 21: blood, 3 dogs/treatment; for Mean MF/mL, Day 0 Pre-dose: baseline before oral dose; for Mean MF/mL, Day 0 Post-dose, 2 hours / Mean MF/mL, Day 1 / Mean MF/mL, Day 7 / Mean MF/mL, Day 14 / Mean MF/mL, Day 21: oral dose (emodepside and 1b-14 1 mg/kg, 1b-25 up to 3 mg/kg); for Mean MF/mL, Day 0 Post-dose, 2 hours / % Reduction of circulating microfilariae, Day 0 Post-dose, 2 hours: 2 hours post-dose; for % Reduction of circulating microfilariae, Day 0 Post-dose, 2 hours / % Reduction of circulating microfilariae, Day 1 / % Reduction of circulating microfilariae, Day 7 / % Reduction of circulating microfilariae, Day 14 / % Reduction of circulating microfilariae, Day 21: vs pre-dose (Day 0) counts, oral dose.

For series [3], the system named is third stage larvae of Haemonchus contortus. The series is described as follows: Haemonchus contortus L3 (HcL3) Assay. In kind it is cell-based. To be noted: 96 h, read-out: HcL3 Minimum Effective Dose (MED).
In series [4] the test system is 4th stage larvae (L4) of Dirofilaria immitis. The series is described as follows: Dirofilaria immitis, L4 Stage (DiL4) In Vitro Assay. The series is classed as cell-based. The conditions noted are these: for minimal effective concentration: Dirofilaria immitis, 72 h, read-out: DiL4 Minimum Effective Dose (MED), approximately 72 hours incubation, L4 larvae assessed for survival or paralysis.

Series [5] concerns microfilariae of Dirofilaria immitis. The series is described as follows: Dirofilaria immitis, Microfilaria (DiMF) In vitro Assay. In kind it is cell-based. To be noted: 72 h, read-out: DiMF Minimum Effective Dose (MED), approximately 72 hours incubation, microfilariae assessed for survival or paralysis.
Series [6] relates to circulating microfilariae (Dirofilaria immitis). The conditions noted are these: dog, in vivo, po, 1 mg/kg.

In series [1], `CC(C)C[C@H]1C(=O)O[C@H](Cc2ccc(Cn3cc(Br)cn3)cc2)C(=O)N(C)[C@@H](CC(C)C)C(=O)O[C@H](C)C(=O)N(C)[C@@H](CC(C)C)C(=O)O[C@H](Cc2ccc(Cn3cc(Br)cn3)cc2)C(=O)N(C)[C@@H](CC(C)C)C(=O)O[C@H](C)C(=O)N1C` [Example 1b-25, (3S,6R,9S,12R,15S,18R,21S,24R)-6,18-bis[[4-[(4-bromopyrazol-1-yl)methyl]phenyl]methyl]-3,9,15,21-tetraisobutyl-4,10,12,16,22,24-hexamethyl-1,7,13,19-tetraoxa-4,10,16,22-tetrazacyclotetracosane-2,5,8,11,14,17,20,23-octaone] showed a Vd of 3 L/kg, a clearance of 2 mL/min/kg, a half-life of 110 h and a Cmax of 152 ng/mL. Besides, in series [1], the F is recorded as 12%. For the same compound, in series [2] (heartworm positive dogs), the “Mean MF/mL, Day 0 Pre-dose” value is 32,000 MF/mL; the “Mean MF/mL, Day 0 Post-dose, 2 hours” value is 34,000 MF/mL; the “Mean MF/mL, Day 1” value is 26,000 MF/mL; the “Mean MF/mL, Day 7” value is on record as 27,000 MF/mL. In series [2] (heartworm positive dogs), the “Mean MF/mL, Day 14” value is given as 40,000 MF/mL and the “Mean MF/mL, Day 21” value is 46,000 MF/mL. Besides, in series [2] (heartworm positive dogs, dosed up to 3 mg/kg (po)), the “adverse effects / clinical observations” value is listed as “no adverse effects observed”. Also, in series [2] (heartworm positive dogs, dosed up to 3 mg/kg (po), out to day 21 post-dose), the “effects on circulating MF counts” value is on record as “no significant effects on circulating MF counts”. Besides, in series [2], the “% Reduction of circulating microfilariae, Day 0 Post-dose, 2 hours” value (“% Reduction … 2 hours” for short) is reported as −6%; the “% Reduction of circulating microfilariae, Day 1” value came to 19%; the “% Reduction of circulating microfilariae, Day 7” value (“% Reduction … Day 7” below) was 16%; the “% Reduction of circulating microfilariae, Day 14” value (shortened to “% Reduction … Day 14”) is given as −25%. Also, the “% Reduction of circulating microfilariae, Day 21” value (from here on “% Reduction … Day 21”) in series [2] was −44%. Further, the minimal effective concentration in series [3] lay in the range of 10 to 100 µM. Further, the “selectivity ratio (DiMF/DiL4)” value in series [4] (ratio of DiMF MED to DiL4 MED) was “about 8.3”.

On to `CC(C)C[C@H]1C(=O)O[C@H](Cc2ccc(Cn3nc(C4CC4)cc3C3CC3)cc2)C(=O)N(C)[C@@H](CC(C)C)C(=O)O[C@H](C)C(=O)N(C)[C@@H](CC(C)C)C(=O)O[C@H](Cc2ccc(Cn3nc(C4CC4)cc3C3CC3)cc2)C(=O)N(C)[C@@H](CC(C)C)C(=O)O[C@H](C)C(=O)N1C` [Example 1b-14, (3S,6R,9S,12R,15S,18R,21S,24R)-6,18-bis({4-[(3,5-dicyclopropyl-1H-pyrazol-1-yl)methyl]phenyl}methyl)-4,10,12,16,22,24-hexamethyl-3,9,15,21-tetrakis(2-methylpropyl)-1,7,13,19-tetraoxa-4,10,16,22-tetraazacyclotetracosan-2,5,8,11,14,17,20,23-octaone], for which the minimal effective concentration in series [5] was determined as 0.3 µM. Further, in series [1], the Vd is 2.7 L/kg, the clearance was determined as 0.9 mL/min/kg, the half-life is 138 h and the Cmax was found to be 111 ng/mL. Besides, the F in series [1] is 10%. In series [2] (heartworm positive dogs), the “Mean MF/mL, Day 0 Pre-dose” value is listed as 15,000 MF/mL; the “Mean MF/mL, Day 0 Post-dose, 2 hours” value is 20,000 MF/mL; the “Mean MF/mL, Day 1” value is 14,000 MF/mL; the “Mean MF/mL, Day 7” value was 15,000 MF/mL. Moreover, in series [2] (heartworm positive dogs), the “Mean MF/mL, Day 14” value is on record as 33,000 MF/mL and the “Mean MF/mL, Day 21” value was 28,000 MF/mL. The “adverse effects / clinical observations” value in series [2] (heartworm positive dogs, 1 mg/kg (po)) is reported as “no adverse clinical observations noted”. In addition, the “average MF counts on day 21” value in series [2] (heartworm positive dogs, 1 mg/kg (po), 15,000 MF/mL of blood pre-dose) was 28,000 MF/mL of blood. Moreover, the “effects on circulating MF counts” value in series [2] (heartworm positive dogs, 1 mg/kg (po), throughout the dog study) is “no significant effects on circulating MF counts”. Besides, in series [2], the “% Reduction … 2 hours” value is reported as −33%; the “% Reduction of circulating microfilariae, Day 1” value amounted to 7%; the “% Reduction … Day 7” value turned out to be 0%; the “% Reduction … Day 14” value was −120%. Besides, the “% Reduction … Day 21” value in series [2] is on record as −87%.

For `CC(C)C[C@H]1C(=O)O[C@H](Cc2ccc(Cn3nccc3C3CC3)cc2)C(=O)N(C)[C@@H](CC(C)C)C(=O)O[C@H](C)C(=O)N(C)[C@@H](CC(C)C)C(=O)O[C@H](Cc2ccc(Cn3nccc3C3CC3)cc2)C(=O)N(C)[C@@H](CC(C)C)C(=O)O[C@H](C)C(=O)N1C` [Example 1b-108, (3S,6R,9S,12R,15S,18R,21S,24R)-6,18-bis(4-((5-cyclopropyl-1H-pyrazol-1-yl)methyl)benzyl)-3,9,15,21-tetraisobutyl-4,10,12,16,22,24-hexamethyl-1,7,13,19-tetraoxa-4,10,16,22-tetraazacyclotetracosan-2,5,8,11,14,17,20,23-octaone], the minimal effective concentration in series [5] lay in the range of 0.001 to 0.01 µM. Besides, in series [1], the Vd was 5.6 L/kg, the clearance was 6 mL/min/kg, the half-life is 51 h and the Cmax is 178 ng/mL. In addition, the F in series [1] is listed as 30%. In series [3], the minimal effective concentration is at most 1 µM. The minimal effective concentration in series [4] lay in the range of 0.0001 to 0.001 µM.

Consider `CC(C)C[C@H]1C(=O)O[C@H](Cc2ccc(N3CCOCC3)cc2)C(=O)N(C)[C@@H](CC(C)C)C(=O)O[C@H](C)C(=O)N(C)[C@@H](CC(C)C)C(=O)O[C@H](Cc2ccc(N3CCOCC3)cc2)C(=O)N(C)[C@@H](CC(C)C)C(=O)O[C@H](C)C(=O)N1C` [emodepside, reference compound], for which the “adverse effects / clinical observations” value in series [6] is reported as “all treated dogs exhibited adverse effects consistent with dead or dying circulating microfilariae”. The minimal effective concentration in series [5] turned out to be 0.03 µM. In addition, in series [2] (heartworm positive dogs), the “Mean MF/mL, Day 0 Pre-dose” value is given as 61,000 MF/mL; the “Mean MF/mL, Day 0 Post-dose, 2 hours” value is 8,300 MF/mL; the “Mean MF/mL, Day 1” value was 4,500 MF/mL; the “Mean MF/mL, Day 7” value is 8,800 MF/mL. In series [2] (heartworm positive dogs), the “Mean MF/mL, Day 14” value is listed as 13,000 MF/mL and the “Mean MF/mL, Day 21” value is recorded as 13,000 MF/mL. Moreover, in series [2] (heartworm positive dogs, 1 mg/kg (po), 61,000 MF/mL of blood pre-dose), the “average MF counts at 2 hours post-dose” value is recorded as 8,300 MF/mL of blood. In series [2] (heartworm positive dogs, 1 mg/kg (po), versus pre-dose), the “decrease of average MF counts at 2 hours post-dose” value is about 86%. In series [2], the “% Reduction … 2 hours” value is reported as 86%; the “% Reduction of circulating microfilariae, Day 1” value came out at 93%; the “% Reduction … Day 7” value is 86%; the “% Reduction … Day 14” value was found to be 79%. The “% Reduction … Day 21” value in series [2] turned out to be 79%. For the same compound, the minimal effective concentration in series [4] was determined as 0.03 µM.

The record behind these values is patent US11331369B2, “Endoparasitic depsipeptides” (Zoetis Services LLC, priority 2017, dated 2022).
